One may read the Kd as the concentration at which binding is half-saturated. Usually MIC stands for the least concentration at which growth counts as inhibited.

The source of these data is paper PMC12309968 (iScience, 2025).

For data set [1], the target named is lactate dehydrogenase A (LDH-A), tetrameric form (Homo sapiens, UniProt P00338). Description: biochemical. In kind it is binding.
For data set [2], the system named is human erythrocytes.
In data set [3] the test system is human leukocytes.
Data set [4] concerns human renal tubular cells. The conditions noted are these: cited from earlier work.
Data set [5] deals with Stx2a (Escherichia phage 933W, UniProt P09385+P09386). Briefly: biochemical. In kind it is binding, E. coli (C600-933W strain).
For data set [6] the following is noted: in vivo; cited from earlier work.
The subject of data set [7] is Stx2a binding to TLR4-expressing Gb3Cer-lacking human neutrophils.
In data set [8] the test system is cynomolgus monkey. The conditions noted are these: in vivo; cited from earlier work.
In data set [9] the test system is CD-1 mice. The conditions noted are these: mouse, in vivo, iv.
Data set [10] has as its system E. coli SOS response. Conditions: cited from earlier work.
The subject of data set [11] is Raji cells (Gb3Cer-expressing). Conditions: cited from earlier work.
Data set [12] relates to neutrophil/platelet aggregates. In kind it is cell-based, human.
The subject of data set [13] is interaction between LPS and TLR4. Conditions: cited from earlier work.
Data set [14] relates to E. coli. The conditions noted are these: cited from earlier work.
Data set [15] has as its system monocyte/platelet aggregates. In kind it is cell-based, human.
In data set [16] the test system is Stx2a binding to TLR4-expressing Gb3Cer-lacking human neutrophils. The conditions noted are these: cited from earlier work.
In data set [17] the test system is SOS response. The conditions noted are these: cited from earlier work.
Data set [18] relates to Shigella. The conditions noted are these: cited from earlier work.

Values after ≈ are worked out from the molar mass of the structure shown. “Also recorded” adds a separate entry of the source. Read-outs that look alike come from different tables or passages of the source. Positions of bridges follow the written chain, without caps; N, C: chain ends. Non-standard residues stand in square brackets, D forms with d. Residues, ends and D or L forms follow the SMILES beside them. *: point of attachment. Octanoyl = CCCCCCCC(=O)*; Dab = NCC[C@H](N)C(=O)O; Abu = CC[C@H](N)C(=O)O

In the case of `CCCCCCCC(=O)N[C@@H](CCN)C(=O)N[C@H](C(=O)N[C@@H](C(=O)N[C@H]1CCNC(=O)[C@H]([C@@H](C)O)NC(=O)[C@H](CCN)NC(=O)[C@H](CC)NC(=O)[C@H](CC(C)C)NC(=O)[C@@H](Cc2ccccc2)NC(=O)[C@H](CCN)NC1=O)[C@H](C)O)[C@@H](C)O` [NAB815] (Octanoyl-[Dab]T[dT][Dab][Dab][dF]L[Abu][Dab]T; lactam 4-C), the affinity in [1], expressed as Kd, was 10 µM. Also, the “hemolysis” value in data set [2] is “no hemolysis occurred”. In data set [3], the “necrotic leukocytes (7-AAD+)” value is “the number of necrotic cells was negligible”. In data set [4], the “IC50, cytotoxicity to human renal tubular cells” value is 334 µg/mL (≈ 284 µM) and the “cytotoxicity lower than that of polymyxin B (fold)” value was “approximately 20 times”. In data set [5], binding was put at a Kd of 0.05 µM and the “maximum reduction (quenching) of Stx2a fluorescence” value was “approximately 10%”. Further, in [6], the “excretion into urine relative to polymyxin B” value is “approximately 10 times”. For the same molecule, the “IC50 in inhibiting the binding of Stx2a to human neutrophils” value in [7] came to 0.057 µg/mL. Besides, in data set [8], the “serum creatinine, blood urea nitrogen, urinary biomarkers” value is reported as “no significant increase in serum creatinine, blood urea nitrogen, or in the urinary biomarkers tested” and the “tolerability” value is recorded as “well tolerated”. The “serum creatinine and urea” value in [9] was “No changes in serum creatinine and urea were found”.
For the molecule `O=C(O)c1cn(C2CC2)c2cc(N3CCNCC3)c(F)cc2c1=O` [ciprofloxacin], in [10], the MIC/SIC ratio is listed as 8 and the “SOS-inducing action” value is reported as “frequently used as a model antibiotic inducing the SOS response”.
For `CNC(C)C1CCC(N)C(OC2C(N)CC(N)C(OC3OCC(C)(O)C(NC)C3O)C2O)O1` (stereo not drawn) [gentamicin], in data set [10], the MIC/SIC ratio was 1.8 and the “SOS-inducing action” value is given as “poor”.
Consider `CO[C@@]12[C@H](COC(N)=O)C3=C(C(=O)C(C)=C(N)C3=O)N1C[C@@H]1N[C@@H]12` [mitomycin C], for which, in data set [10], the MIC/SIC ratio is 1.4 and the “SOS-inducing action” value is “strong SOS-inducing actions”.
For Triton X-100, the “hemolysis” value in data set [2] is listed as “no hemolysis occurred, unlike treatment with Triton X-100, chosen as a positive control”.
Turning to polymyxin B, the “lack of protection of Gb3Cer-expressing Raji cells from Stx2a” value in data set [11] is reported as “as previously shown with polymyxin B”. Moreover, in data set [12], the “effect on neutrophil/platelet aggregates” value is “ineffective at these concentrations”. For the same molecule, the “block of LPS/TLR4 interaction” value in data set [13] was “known to block the interaction between the bacterial endotoxin (lipopolysaccharide [LPS]) and TLR4”. Moreover, the MIC in data set [14] was 1 µg/mL. In addition, the “effect on monocyte/platelet aggregates” value in data set [15] is reported as “ineffective at these concentrations”. Also, in [16], the “IC50 in inhibiting the binding of Stx2a to human neutrophils” value was 3.5 µg/mL and the “effect on Stx2a/TLR4 interactions, binding of Stx2a to leukocytes” value is reported as “effectively impairs the Stx2a/TLR4 interactions; also recorded: does block the binding of Stx2a to leukocytes at μg/mL concentrations that are also highly bactericidal”. For the same molecule, the “IC50, cytotoxicity to human renal tubular cells” value in [4] is 18 µg/mL. Besides, in [17], the “concentration eliciting the SOS response” value was “higher than 1 μg/mL”. For the same molecule, the “tolerability” value in data set [8] is “had to be euthanized because of severe nephrotoxicity”. In addition, the “concentration inducing release of considerable amounts of Stx by Shigella” value in [18] is listed as “higher than 1 μg/mL”.
